Source: patent US11046699B2, “Pyrazolo-pyrimidin-amino-cycloalkyl compounds and their therapeutic uses” (RAPT THERAPEUTICS, INC., priority 2018, dated 2021)
One block for each molecule: values may come before it.

Target: GCN2 (Homo sapiens, UniProt Q9P2K8)
Test: GCN2 enzymatic endpoint assay: phosphorylation of GFP-eIF2α measured by TR-FRET (Lanthascreen)
Assay type: biochemical
Settings: tested as described in Example 77; compound and/or hydrochloride, dihydrochloride or trifluoroacetic acid salt; read-out: IC 50 Activity
Outline: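 Reaction started with 2 μM ATP and 80 nM GFP-labelled eIF2α substrate at room temperature, stopped with EDTA after 90 minutes. Phospho-eIF2α detected by terbium-labelled antibody TR-FRET; activity taken as 520 nm (fluorescein) to 495 nm (terbium) emission ratio.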

GCN2, sequence (Q9P2K8 whole entry): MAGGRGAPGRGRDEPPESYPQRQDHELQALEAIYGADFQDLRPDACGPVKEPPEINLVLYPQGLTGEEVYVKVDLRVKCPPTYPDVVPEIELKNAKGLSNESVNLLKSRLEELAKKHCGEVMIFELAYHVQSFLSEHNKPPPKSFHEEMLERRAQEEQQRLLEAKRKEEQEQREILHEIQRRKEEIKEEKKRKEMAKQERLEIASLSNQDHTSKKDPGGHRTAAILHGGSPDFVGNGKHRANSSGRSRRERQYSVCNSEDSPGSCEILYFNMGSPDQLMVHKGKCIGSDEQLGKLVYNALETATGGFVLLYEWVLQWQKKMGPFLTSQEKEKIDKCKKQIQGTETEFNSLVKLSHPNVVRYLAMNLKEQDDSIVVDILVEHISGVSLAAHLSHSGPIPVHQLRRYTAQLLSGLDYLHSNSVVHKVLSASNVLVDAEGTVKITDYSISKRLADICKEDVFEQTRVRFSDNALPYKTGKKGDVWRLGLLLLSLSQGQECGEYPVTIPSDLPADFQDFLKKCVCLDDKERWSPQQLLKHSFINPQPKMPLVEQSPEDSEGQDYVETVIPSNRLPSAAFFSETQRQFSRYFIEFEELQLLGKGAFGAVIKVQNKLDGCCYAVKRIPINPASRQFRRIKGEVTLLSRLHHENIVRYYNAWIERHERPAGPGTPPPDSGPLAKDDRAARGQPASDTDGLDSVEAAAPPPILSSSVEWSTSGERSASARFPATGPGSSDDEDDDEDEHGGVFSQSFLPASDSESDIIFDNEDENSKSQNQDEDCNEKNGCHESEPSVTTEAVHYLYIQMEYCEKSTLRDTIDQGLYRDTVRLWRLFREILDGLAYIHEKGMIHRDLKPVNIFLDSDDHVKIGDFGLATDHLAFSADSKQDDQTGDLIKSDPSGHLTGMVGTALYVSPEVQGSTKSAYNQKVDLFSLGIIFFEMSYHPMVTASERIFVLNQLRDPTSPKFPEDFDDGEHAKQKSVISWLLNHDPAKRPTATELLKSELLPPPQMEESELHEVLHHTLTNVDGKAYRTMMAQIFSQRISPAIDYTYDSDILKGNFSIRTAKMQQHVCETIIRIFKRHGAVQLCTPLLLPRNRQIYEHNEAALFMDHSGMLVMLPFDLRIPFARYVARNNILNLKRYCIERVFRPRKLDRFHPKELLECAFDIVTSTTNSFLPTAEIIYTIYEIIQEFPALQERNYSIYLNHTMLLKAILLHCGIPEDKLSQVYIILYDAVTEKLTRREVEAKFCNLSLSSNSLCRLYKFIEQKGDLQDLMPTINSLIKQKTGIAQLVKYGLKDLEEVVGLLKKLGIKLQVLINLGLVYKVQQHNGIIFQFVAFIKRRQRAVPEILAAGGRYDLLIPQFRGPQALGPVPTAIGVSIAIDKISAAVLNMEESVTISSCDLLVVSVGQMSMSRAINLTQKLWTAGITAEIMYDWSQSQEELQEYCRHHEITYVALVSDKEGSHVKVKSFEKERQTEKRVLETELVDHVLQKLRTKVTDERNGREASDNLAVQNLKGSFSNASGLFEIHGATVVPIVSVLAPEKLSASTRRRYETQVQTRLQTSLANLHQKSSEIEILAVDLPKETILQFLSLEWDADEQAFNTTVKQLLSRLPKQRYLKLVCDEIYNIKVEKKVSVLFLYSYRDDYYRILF

Structure (SMILES): CNC(=O)[C@]1(C)CC[C@@H](Nc2ncc3c(Br)nn(-c4cc(Cl)cc(OCC(C)O)c4)c3n2)C1 (stereo partly drawn) [(1R,3R)-3-[[3-bromo-1-[3-chloro-5-(2-hydroxypropoxy)phenyl]pyrazolo[3,4-d]pyrimidin-6-yl]amino]-N,1-dimethyl-cyclopentanecarboxamide]
IC50: 0.025 to 0.2 µM

Structure (SMILES): CNC(=O)[C@]1(C#N)CC[C@@H](Nc2ncc3c(Br)nn(-c4ccc(-c5nnc(C)s5)cc4)c3n2)C1
IC50: 0.025 to 0.2 µM

Structure (SMILES): CNC(=O)[C@]1(C)CC[C@@H](Nc2ncc3c(Br)nn(-c4cc(CNCCC#N)cc(OC(F)(F)F)c4)c3n2)C1 [(1R,3R)-3-[[3-bromo-1-[3-[(2-cyanoethyl-amino)methyl]-5-(trifluoromethoxy)phenyl]pyrazolo[3,4-d]pyrimidin-6-yl]amino]-N,1-dimethyl-cyclopentane-carboxamide]
IC50: 0.025 to 0.2 µM

Structure (SMILES): CNC(=O)[C@]1(C)CC[C@@H](Nc2ncc3c(Br)nn(-c4cc(Cl)cc(CCNS(C)(=O)=O)c4)c3n2)C1
IC50: 0.025 to 0.2 µM

Structure (SMILES): CNC(=O)[C@@]1(C)CC[C@@H](Nc2ncc3c(I)nn(-c4ccc(-c5nnc(C)o5)cc4)c3n2)C1 [(1S,3R)-3-[[3-iodo-1-[4-(5-methyl-1,3,4-oxadiazol-2-yl)phenyl]pyrazolo[3,4-d]pyrimidin-6-yl]amino]-N,1-dimethyl-cyclopentanecarboxamide]
IC50: 0.025 to 0.2 µM

Structure (SMILES): C[C@]1(NC(=O)[C@@H]2CC[C@@H](Nc3ncc4c(Br)nn(-c5ccc6ncccc6c5)c4n3)C2)C[C@H](O)C1
IC50: 0.025 to 0.2 µM

Structure (SMILES): CNC(=O)[C@]1(C)CC[C@@H](Nc2ncc3c(Br)nn(-c4ccc5nccc(=O)n5c4)c3n2)C1 [(1R,3R)-3-[[3-bromo-1-(4-oxopyrido [1,2-a]pyrimidin-7-yl)pyrazolo[3,4-d]pyrimidin-6-yl]amino]-N,1-dimethyl-cyclopentanecarboxamide]
IC50: 0.025 to 0.2 µM

Structure (SMILES): CNC(=O)[C@]1(C)CC[C@@H](Nc2ncc3c(Br)nn(-c4ccc(-c5nnc(C)o5)nc4)c3n2)C1 [(1R,3R)-3-[[3-bromo-1-[6-(5-methyl-1,3,4-oxadiazol-2-yl)-3-pyridyl]pyrazolo [3,4-d]pyrimidin-6-yl]amino]-N,1-dimethyl-cyclopentanecarboxamide]
IC50: 0.025 to 0.2 µM

Structure (SMILES): CNC(=O)[C@]1(C#N)CC[C@@H](Nc2ncc3c(Br)nn(-c4ccc(-c5nnc(C)s5)c(CCC#N)c4)c3n2)C1
IC50: 0.025 to 0.2 µM

Structure (SMILES): COCCNC(=O)[C@@H]1CC[C@@H](Nc2ncc3c(Br)nn(-c4cnc5ccc(F)cc5c4)c3n2)C1 [(1R,3R)-3-((3-bromo-1-(6-fluoroquinolin-3-yl)-1H-pyrazolo[3,4-d]pyrimidin-6-yl)amino)-N-(2-methoxyethyl)cyclopentane-1-carboxamide]
IC50: 0.5 to 1 µM

Structure (SMILES): CNC(=O)[C@]1(C)CC[C@@H](Nc2ncc3c(Br)nn(-c4ccc5[nH]c(=O)ncc5c4)c3n2)C1 [(1R,3R)-3-[[3-bromo-1-(2-oxo-1H-quinazolin-6-yl)pyrazolo[3,4-d]pyrimidin-6-yl]amino]-N,1-dimethyl-cyclopentane-carboxamide; 2,2,2-trifluoroacetic acid]
IC50: 0.025 to 0.2 µM

Structure (SMILES): CNC(=O)[C@]1(C(C)C)CC[C@@H](Nc2ncc3c(Br)nn(-c4cc([C@@H](C)N)c5nccnc5c4)c3n2)C1
IC50: < 0.025 µM

Structure (SMILES): CNC(=O)[C@]1(C)CC[C@@H](Nc2ncc3c(Br)nn(-c4cc(F)cc(C(N)=O)c4)c3n2)C1 [3-[3-bromo-6-[[(1R,3R)-3-methyl-3-(methylcarbamoyl)cyclopentyl]amino]pyrazolo[3,4-d]pyrimidin-1-yl]-5-fluoro-benzamide]
IC50: 0.025 to 0.2 µM

Structure (SMILES): CNC(=O)[C@]1(C)CC[C@@H](Nc2ncc3c(Br)nn(-c4ccc5nc(N6CCN(C(C)=O)CC6)ncc5c4)c3n2)C1
IC50: 0.025 to 0.2 µM

Structure (SMILES): CNC(=O)C1(C)CC[C@@H](Nc2ncc3c(Br)nn(-c4ccc(-c5noc(C)n5)cc4)c3n2)C1 (stereo partly drawn) [(3R)-3-[[3-bromo-1-[4-(5-methyl-1,2,4-oxadiazol-3-yl)phenyl]pyrazolo[3,4-d]pyrimidin-6-yl]amino]-N,1-dimethyl-cyclopentanecarboxamide]
IC50: 0.025 to 0.2 µM

Structure (SMILES): O=C([C@@H]1CC[C@@H](Nc2ncc3c(Br)nn(-c4ccc5ncccc5c4)c3n2)C1)N1CC[S+]([O-])CC1 [((1R,3R)-3-((3-bromo-1-(quinolin-6-yl)-1H-pyrazolo[3,4-d]pyrimidin-6-yl)amino)cyclo-pentyl)(1-oxidothiomorpholino)methanone]
IC50: 0.025 to 0.2 µM

Structure (SMILES): Cc1nnc(-c2ccc(-n3nc(Br)c4cnc(N[C@@H]5CC[C@@H](NC(=O)C6CNC6)C5)nc43)cc2)s1
IC50: 0.025 to 0.2 µM

Structure (SMILES): CNC(=O)[C@]1(C)CC[C@@H](Nc2ncc3c(Br)nn(-c4cc(CCNC(=O)OC)c5ncccc5c4)c3n2)C1 [methyl N-[2-[6-[3-bromo-6-[[(1R,3R)-3-methyl-3-(methylcarbamoyl)cyclopentyl]amino]pyrazolo[3,4-d]pyrimidin-1-yl]-8-quinolyl]ethyl]carbamate]
IC50: 0.025 to 0.2 µM

Structure (SMILES): Cc1nnc(-c2ccc(-n3nc(Br)c4cnc(N[C@@H]5CC[C@@](C)(C(=O)N6CCNCC6)C5)nc43)cc2CCC#N)s1
IC50: 0.025 to 0.2 µM

Structure (SMILES): CNC(=O)[C@]1(C)CC[C@@H](Nc2ncc3c(Br)nn(-c4cc(CO)c5nccnc5c4)c3n2)C1 [(1R,3R)-3-[[3-bromo-1-[8-(hydroxymethyl)quinoxalin-6-yl]pyrazolo[3,4-d]pyrimidin-6-yl]amino]-N,1-dimethyl-cyclopentane-carboxamide]
IC50: 0.025 to 0.2 µM

Structure (SMILES): O=C(NC1CCOCC1)[C@@H]1CC[C@@H](Nc2ncc3c(Br)nn(-c4ccc5ncccc5c4)c3n2)C1 [(1R,3R)-3-((3-bromo-1-(quinolin-6-yl)-1H-pyrazolo[3,4-d]pyrimidin-6-yl)amino)-N-(tetrahydro-2H-pyran-4-yl)cyclopentane-1-carboxamide]
IC50: 0.025 to 0.2 µM

Next, values leading:

IC50: 0.025 to 0.2 µM
Structure (SMILES): CNC(=O)[C@]1(C)CC[C@@H](Nc2ncc3c(Br)nn(-c4ccc(-c5ncco5)c([C@H](C)CN)c4)c3n2)C1 [(1R,3R)-3-[[1-[3-[(1S)-2-amino-1-methyl-ethyl]-4-oxazol-2-yl-phenyl]-3-bromo-pyrazolo[3,4-d]pyrimidin-6-yl]amino]-N,1-dimethyl-cyclopentanecarboxamide]

IC50: 0.025 to 0.2 µM
Structure (SMILES): CNC(=O)[C@]1(C)CC[C@@H](Nc2ncc3c(Br)nn(-c4cc(Cl)c(F)c(CO)c4)c3n2)C1 [(1R,3R)-3-[[3-bromo-1-[3-chloro-4-fluoro-5-(hydroxymethyl)phenyl]pyrazolo[3,4-d]pyrimidin-6-yl]amino]-N,1-dimethyl-cyclopentanecarboxamide]

IC50: 0.025 to 0.2 µM
Structure (SMILES): CNC(=O)[C@@]1(C)CC[C@@H](Nc2ncc3c(Br)nn(-c4ccc(OCCO)cc4)c3n2)C1 [(1S,3R)-3-[[3-bromo-1-[4-(2-hydroxy-ethoxy)phenyl]pyrazolo[3,4-d]pyrimidin-6-yl]amino]-N,1-dimethyl-cyclopentane-carboxamide]

IC50: 0.025 to 0.2 µM
Structure (SMILES): CNC(=O)[C@]1(C)CC[C@@H](Nc2ncc3c(Br)nn(-c4cc(NC(=O)CCCN)c5ncccc5c4)c3n2)C1 [(1R,3R)-3-[[1-[8-(4-aminobutanoylamino)-6-quinolyl]-3-bromo-pyrazolo[3,4-d]pyrimidin-6-yl]amino]-N,1-dimethyl-cyclopentanecarboxamide]

IC50: 0.025 to 0.2 µM
Structure (SMILES): CNC(=O)[C@]1(C)CC[C@@H](Nc2ncc3c(Br)nn(-c4cnc5c(CCN)cccc5c4)c3n2)C1 [(1R,3R)-3-[[1-[8-(2-aminoethyl)-3-quinolyl]-3-bromo-pyrazolo[3,4-d]pyrimidin-6-yl]amino]-N,1-dimethyl-cyclopentane-carboxamide]

IC50: 0.025 to 0.2 µM
Structure (SMILES): COC[C@H](C)NC(=O)[C@@H]1CC[C@@H](Nc2ncc3c(Br)nn(-c4ccc5ncccc5c4)c3n2)C1 [(1R,3R)-3-((3-bromo-1-(quinolin-6-yl)-1H-pyrazolo[3,4-d]pyrimidin-6-yl)amino)-N-((S)-1-methoxypropan-2-yl)cyclopentane-1-carboxamide]

IC50: 0.025 to 0.2 µM
Structure (SMILES): CC(C)NC(=O)[C@@H]1CC[C@@H](Nc2ncc3c(Br)nn(-c4cc(C#N)c5ncccc5c4)c3n2)C1 [(1R,3R)-3-((3-bromo-1-(8-cyanoquinolin-6-yl)-1H-pyrazolo[3,4-d]pyrimidin-6-yl)amino)-N-isopropylcyclopentane-1-carboxamide]

IC50: < 0.025 µM
Structure (SMILES): CNC(=O)[C@]1(C)CC[C@@H](Nc2ncc3c(Br)nn(-c4ccc(-c5nnc(CCOC)o5)cc4)c3n2)C1 [(1R,3R)-3-[[3-bromo-1-[4-[5-(2-methoxy-ethyl)-1,3,4-oxadiazol-2-yl]phenyl]pyrazolo [3,4-d]pyrimidin-6-yl]amino]-N,1-dimethyl-cyclopentanecarboxamide]

IC50: < 0.025 µM
Structure (SMILES): C[C@@]1(C(=O)O)CC[C@@H](Nc2ncc3c(Br)nn(-c4cc(CCN)c5ncccc5c4)c3n2)C1 [(1R,3R)-3-[[1-[8-(2-aminoethyl)-6-quinolyl]-3-bromo-pyrazolo[3,4-d]pyrimidin-6-yl]amino]-1-methyl-cyclopentanecarboxylic acid]

IC50: < 0.025 µM
Structure (SMILES): CNC(=O)[C@]1(C)CC[C@@H](Nc2ncc3c(Br)nn(-c4ccc5ncc(NC(=O)C6CNC6)cc5c4)c3n2)C1 [N-[6-[3-bromo-6-[[(1R,3R)-3-methyl-3-(methylcarbamoyl)cyclopentyl]amino]pyrazolo[3,4-d]pyrimidin-1-yl]-3-quinolyl]azetidine-3-carboxamide]

IC50: < 0.025 µM
Structure (SMILES): CC1(C(=O)N2CCOCC2)CC[C@@H](Nc2ncc3c(Br)nn(-c4cc(F)c5ncccc5c4)c3n2)C1 (stereo partly drawn) [[(3R)-3-[[3-bromo-1-(8-fluoro-6-quinolyl)pyrazolo[3,4-d]pyrimidin-6-yl]amino]-1-methyl-cyclopentyl]-morpholino-methanone]

IC50: < 0.025 µM
Structure (SMILES): CNC(=O)[C@]1(C)CC[C@@H](Nc2ncc3c(I)nn(-c4ccc(-c5nnc(C)o5)cc4)c3n2)C1 [(1R,3R)-3-[[3-iodo-1-[4-(5-methyl-1,3,4-oxadiazol-2-yl)phenyl]pyrazolo[3,4-d]pyrimidin-6-yl]amino]-N,1-dimethyl-cyclopentanecarboxamide]

IC50: < 0.025 µM
Structure (SMILES): O=C1OCC[C@]12CC[C@@H](Nc1ncc3c(Br)nn(-c4cc(F)c5ncccc5c4)c3n1)C2 [(5R,7R)-7-((3-bromo-1-(8-fluoroquinolin-6-yl)-1H-pyrazolo[3,4-d]pyrimidin-6-yl)amino)-2-oxaspiro[4.4]nonan-1-one]
